Entries after “also recorded” stand apart in the source; their conditions may differ.

For one data set, the system named is MGMT^−/− Lin^− BM. Description: in vitro erythroid micronucleus assay, MGMT−/− Lin− bone marrow. Particulars: introduced 10 h, 23 h or 30 h after seeding, harvest 72 h.
For data set [1] the following is noted: bolus injection of 25 mg/kg, cited from earlier work.
Data set [2] has as its system Lin^− fraction of C57BL/6J (mouse) BM. Put plainly: in vitro erythroid micronucleus assay, erythropoietic culture of wild-type Lin− bone marrow.
The test system of another data set is bone marrow. The conditions noted are these: dose concentrations up to 20 μM, in vitro dosing (Glassner 1999); cited from earlier work.
The subject of data set [3] is bone marrow PCEs (reticulocytes). Particulars: mouse; cited from earlier work.
Data set [4] deals with Lin^− bone marrow cells. Put plainly: erythropoietic growth of Lin− bone marrow quantified by flow cytometry (Ter-119/CD71) and total cell counts. The class given is cell-based, mouse. The conditions noted are these: for Avg Growth +/− SD: 5% CO2, 20% O2, Fn 2, Ins 10. The protocol:
FIG. 13 is a bar graph of data obtained from experiments performed to determined the effect of Epo on the erythropoietic growth of Lin− bone marrow cells. Lin^− bone marrow cells were cultured for 1 day in media containing serum along with Epo at variable concentrations. Epo was removed from the culture media at the end of 1 day, and culture was continued for 2 more days in media with serum. At the end of the third day, the resulting populations were removed from culture and erythropoietic growth was quantified as the product of total cell counts and flow cytometric region fractions. Specifically, erythroid-specific growth at two late stages was calculated for each culture by taking the product of the total cell count and the fraction of the population found to have the indicated surface phenotype (determined by flow cytometry). These erythroid growth values were then normalized to the number of Lin^− cells seeded.
Studies were conducted by stimulating Lin^− mouse BM with specifically defined media formulations for 24 hours before replacing the medium to a minimal erythroid-differentiation medium (EDM) and culturing for an additional 2-3 days. This EDM contains 20% FBS, 2 mM L-glutamine, and 0.1 mM β-mercaptoethanol in IMDM, whereas the “Day 1” medium consists of IMDM with 15% FBS, 2 mM L-glutamine, 0.1 mM β-mercaptoethanol, 1% BSA, 200 μg holo-transferrin, 10 μg/mL insulin as well as further supplements (some specific media formulations listed in Table I). Upon harvest, the number of late-stage erythroid cells and enucleated erythrocytes produced over the culture period was analyzed. […] Although the most relevant endpoint for these cultures is PCEs-produced per primary BM cell, the number of R4 and R5 cells in the post-culture population, as measured by flow ctyometry, provided a reasonable metric of PCE content for early screening studies. More rigorous quantification, via histological analysis, was then employed in a more detailed analysis to generate FIGS. 11, 12, 14 and 16.
As shown above, short-term erythropoietic culture can be used to detect genotoxic exposure. Quantitative studies on the erythropoietic growth of Lin^− BM after stimulus with physiologic erythropoietic factors were used to further improve the culture methodology and thus increase the potential throughput of the in vitro erythroid MN assay described here. Initially, flow cytometry was used to define late-erythroid cells by subdividing the Ter-119^+ population based on CD71 expression (regions shown in FIG. 4) to estimate the fraction of a culture that acquired late-erythroid surface markers. The products of flow cytometric region statistics and total cell counts were calculated and then normalized to input cell numbers to quantify erythropoietic growth in a culture.
Table II. in vitro erythroid growth is modulated by physiologic erythropoietic stimuli. The culture conditions listed on the left-hand side of the table specify the environment in which a growth measurement was made. All soluble growth factors used in these experiments were removed from culture after 1 day. An X in this first section of the table indicates the variable parameter found to have a significant erythropoietic growth-effect. The measured effect of that parameter on erythropoietic growth is then given on the right-hand side of the table. In this right-hand section of the table, the first item listed is the defining surface phenotype of the erythropoietic population. […] Finally, the level of significance (P value) is given. Note that the first 4 entries to this table were taken from FIG. 13; other entries were obtained from similar figures. P values were determined by the two-tailed t test, except for the 3 italicized P values, which were determined using the one-tailed t test.
(A flow cytometer gives signals particle by particle.)

Data set [5] has as its system Lin^− bone marrow cells. Description: PCE growth of Lin− bone marrow by acridine orange histology, fractional-factorial design with regression. The class given is cell-based, mouse. The protocol:
(FIG. 14A) Lin^− bone marrow cells were cultured for 1 day in media containing serum and various combinations of soluble growth factors as listed on the abscissa; these specific 6-factor combinations constitute an orthogonal fractional-factorial design (also represented in Table 1). After 1 day, all soluble erythropoietic growth factors were removed and the cells were cultured for either 2 or 3 additional days in medium with serum. At harvest, the cells were removed from culture and late erythropoietic growth was quantified. For each culture, PCE numbers were calculated by taking the product of the total cell count and the PCE fraction of the population as determined by differential cell counting after staining with acridine orange (>2000 cells scored per culture). Growth calculations were normalized to input cell numbers and are presented as the mean of 3 independent cultures +/− the standard deviation. (FIG. 14B) Culture methods that yielded similar populations at harvest were grouped into subsets (α, β, γ, and δ); growth characteristics for these subsets were quantified and representative micrographs were acquired. […] Cultures exposed to SCF but not Epo (subset γ) expanded approximately 2.5-fold in total cell numbers, but again contained less than 3% PCEs. Cultures exposed to both Epo and SCF (subset β) expanded approximately 13-fold in total cell numbers and yielded populations in which approximately 31% of all cells are PCEs. Finally, cultures exposed to both Epo and Dex but not SCF (subset δ) expanded approximately 4-fold while producing populations in which approximately 51% of all cells are PCEs. Growth calculations are presented as the mean of all cultures in a subset ± the standard deviation. Scale bars: 20 μm.
Table I is an experimental design chart that provides the specific details of the experimental conditions that were examined to generate FIGS. 11, 12, 14 and 16. Specifically, this experimental design is a two-level, minimum-aberration, fractional-factorial design of resolution IV (a 2IV^6-2 minimum-aberration design). The full-factorial design was not performed because an experiment of this size (2^6 cultures for each biological singlet) was logisitically infeasible. This experiment was designed in order to estimate all the main (primary) interactions between the culture response (PCEs produced) and the individual parameters included in the design. In addition, many of the secondary interactions (between the culture response and various parameter-pairs) were estimable by conducting this design (see FIGS. 12 and 16), although some of these secondary interactions were confounded with other secondary interactions. Each condition listed in the design table was tested in biological triplicate, and each triplicate set was cultured under three different atmospheric conditions, to yield a total of nine culture wells per listed condition.
Furthermore, some variability between various Lin^− BM isolations was observed over the course of preliminary flow cytometric studies. Therefore, a definitive study was conducted that used aliquots of a large, well-mixed Lin^− population that was isolated from the combined BM of 15 mice. In this study, flow cytometry was replaced by histological analysis to provide more rigorous quantification of a population's PCE content. This study was designed to estimate the relative stimulatory effect of various, previously-identified erythroid growth factors on culture performance. Specifically a minimum-aberration, fractional-factorial experimental design (a 2IV^6-2 minimum-aberration design) was conducted to estimate all the main (primary) interactions between the culture response, which was PCEs produced (as assessed by histology), and the individual parameters included in the design (see Table I, and FIGS. 11, 12, 14 and 16). […]

For `O=NN(CCCl)C(=O)NCCCl` [BCNU, 1,3-bis (2-chloroethyl) -1-nitrosourea], the “MN frequency, MGMT−/− vs wild-type cultures” value in the data set on MGMT^−/− Lin^− BM (10 μM and 20 μM doses) is “significant increases in MN frequency; also recorded: more sensitive to growth-inhibition and MN-formation”. For the same compound, in the data set with MGMT^−/− Lin^− BM, the “cell survival (growth inhibition), MGMT−/− vs wild-type cultures” value is recorded as “decreased cell survival”. Further, in data set [1] (after 1 minute (Meulemans 1989)), the peak plasma concentration is reported as approximately 0.4 mM. Moreover, the plasma level result in data set [1] (within the next 15 minutes (Meulemans 1989)) is given as “approximately 40 μM”. Further, in data set [2] (20 μM introduced 7 hours after seeding, harvest after 72 hours, vs vehicle control), the “MN frequency in the PCE population (MN-PCE frequency)” value is on record as “provides a clear signal of genotoxicity; also recorded: significantly different than those exposed to vehicle control alone; also recorded: an increase in the frequency of MN-PCEs”. In data set [2] (MGMT+/+ BM cultures treated 4 h after culture initiation (data not shown)), the “cell killing and MN formation” value is “cell-killing dominated and very little MN formation was observed”. In addition, the “cell survival as measured by colony assay” value in the data set on bone marrow was approximately 100%.
On to `COS(C)(=O)=O` [MMS, methylmethane sulfonate], for which, in data set [3], the “result in the in vivo MN assay” value was “test positive”.
In the case of “SCF: stem cell factor (R&D systems), soluble erythropoietic growth factor”, the “Avg Growth +/− SD” value in the data set on Lin^− bone marrow cells [4] ([SCF] = 1 ng/mL, Ter-119+ CD71+, Epo 5 U/mL, 72 h) is recorded as 0.897 +/− 0.053 per Lin^− cell seeded; in the data set with Lin^− bone marrow cells [4] ([SCF] = 1 ng/mL, Ter-119+ CD71−, Epo 5 U/mL, 72 h), 0.275 +/− 0.026 per Lin^− cell seeded; with Lin^− bone marrow cells [4] ([SCF] = 1 ng/mL, Ter-119+ CD71−, Epo 5 U/mL, 96 h), 0.372 +/− 0.052 per Lin^− cell seeded; in the data set on Lin^− bone marrow cells [4] ([SCF] = 10 ng/mL, Ter-119+ CD71+, Epo 3.5 U/mL, 72 h) it was 1.512 +/− 0.100 per Lin^− cell seeded; with Lin^− bone marrow cells [4] ([SCF] = 10 ng/mL, Ter-119+ CD71+, Epo 5 U/mL, 72 h), 1.448 +/− 0.155 per Lin^− cell seeded; with Lin^− bone marrow cells [4] ([SCF] = 10 ng/mL, Ter-119+ CD71−, Epo 3.5 U/mL, 72 h), 0.202 +/− 0.023 per Lin^− cell seeded. For the same compound, the “Avg Growth +/− SD” value in the data set on Lin^− bone marrow cells [4] ([SCF] = 10 ng/mL, Ter-119+ CD71−, Epo 5 U/mL, 96 h) is on record as 0.608 +/− 0.081 per Lin^− cell seeded; in the data set on Lin^− bone marrow cells [4] ([SCF] = 100 ng/mL, Ter-119+ CD71+, Epo 5 U/mL, 72 h), 1.929 +/− 0.154 per Lin^− cell seeded; in the data set with Lin^− bone marrow cells [4] ([SCF] = 100 ng/mL, Ter-119+ CD71−, Epo 5 U/mL, 72 h), 0.369 +/− 0.041 per Lin^− cell seeded. The “effect on erythropoietic growth (erythropoietic flow cytometry), in words” value with Lin^− bone marrow cells [4] (preliminary flow cytometric studies, Lin− BM from C57BL/6J mice) was “did induce increasing erythropoietic growth up to the maximum concentration tested”. Moreover, the “Scaled Estimate (model parameter, PCE growth)” value with Lin^− bone marrow cells [5] (complete multi-linear regression model (n3=27), parameters scaled 0 to 1) is given as 0.166; in the data set on Lin^− bone marrow cells [5] (reduced multi-linear regression model (n3=17), FIG. 16), 0.138. Further, the “PCEs among all cells of the harvested population” value in the data set on Lin^− bone marrow cells [5] (growth factors present for 1 day, then 2 or 3 additional days, acridine orange differential counts (FIG. 14B)) is “less than 3%”. The “expansion in total cell numbers” value in the data set with Lin^− bone marrow cells [5] (growth factors present for 1 day, then 2 or 3 additional days, mean of all cultures in a subset (FIG. 14B)) is “approximately 2.5 fold”. In the data set with Lin^− bone marrow cells [5] (primary and secondary effects, untreated cultures), the “effect on PCE production / erythropoietic growth, statistical analysis of FIG. 12” value is “major factors influencing erythropoietic growth; also recorded: next largest effects”.
